Values joined by “and” are separate entries in the source; they are usually repeats but may differ in a detail not shown here. Equal entries are not always repeated.
How the values were obtained:
STAT3-SH2 domain = STAT3-SH2 domain (Mus musculus, UniProt P42227); test: STAT3 fluorescence polarization; assay type: binding, murine; conditions: non-phosphorylated analogs; data not shown
[1] = test system: STAT3–STAT3:DNA binding activity in NIH3T3/vSrc; assay type: cell-based, mouse; conditions: 100 μM; for suppression of STAT3-DNA binding activity (in words): 6 and 24 hrs
[2] = Permeability and efflux analysis in Caco-2 cells; conditions: human
STAT5 = STAT5 fluorescence polarization; assay type: binding; conditions: data not shown
in vitro = conditions: human; for recovery at 90 min, 10 μM: Caco-2
gp130 (Homo sapiens) = gp130 (Homo sapiens) (UniProt P40189); test: SPR; conditions: cited from earlier work
tumor cells = conditions: cited from earlier work
[3] = test system: DU145, Panc-1, NIH3T3/vSrc and MDA468 cells; assay type: cell-based; conditions: 24 hrs, lower concentrations; data not shown

STAT3-SH2 domain, sequence (P42227 whole entry, the tested form may be a part): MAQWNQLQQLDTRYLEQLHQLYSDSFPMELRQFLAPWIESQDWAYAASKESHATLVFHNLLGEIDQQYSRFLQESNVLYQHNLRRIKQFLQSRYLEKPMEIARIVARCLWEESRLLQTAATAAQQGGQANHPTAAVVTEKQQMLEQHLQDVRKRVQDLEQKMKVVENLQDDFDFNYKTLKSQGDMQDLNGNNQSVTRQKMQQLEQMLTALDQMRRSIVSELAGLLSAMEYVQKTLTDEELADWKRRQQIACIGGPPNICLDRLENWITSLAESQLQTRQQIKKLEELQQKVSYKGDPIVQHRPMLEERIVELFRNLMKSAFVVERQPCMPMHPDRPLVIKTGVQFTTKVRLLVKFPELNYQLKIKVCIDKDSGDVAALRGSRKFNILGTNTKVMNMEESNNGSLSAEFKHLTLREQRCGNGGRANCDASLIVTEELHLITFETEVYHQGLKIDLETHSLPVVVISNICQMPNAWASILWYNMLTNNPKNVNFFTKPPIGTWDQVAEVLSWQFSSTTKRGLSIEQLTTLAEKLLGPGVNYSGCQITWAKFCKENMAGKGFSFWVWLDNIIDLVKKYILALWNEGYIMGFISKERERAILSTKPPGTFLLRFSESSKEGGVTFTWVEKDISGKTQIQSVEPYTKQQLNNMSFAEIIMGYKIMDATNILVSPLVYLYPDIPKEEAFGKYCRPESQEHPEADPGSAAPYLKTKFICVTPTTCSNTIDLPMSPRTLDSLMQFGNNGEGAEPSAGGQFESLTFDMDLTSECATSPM
gp130 (Homo sapiens), sequence (P40189 whole entry, looked up): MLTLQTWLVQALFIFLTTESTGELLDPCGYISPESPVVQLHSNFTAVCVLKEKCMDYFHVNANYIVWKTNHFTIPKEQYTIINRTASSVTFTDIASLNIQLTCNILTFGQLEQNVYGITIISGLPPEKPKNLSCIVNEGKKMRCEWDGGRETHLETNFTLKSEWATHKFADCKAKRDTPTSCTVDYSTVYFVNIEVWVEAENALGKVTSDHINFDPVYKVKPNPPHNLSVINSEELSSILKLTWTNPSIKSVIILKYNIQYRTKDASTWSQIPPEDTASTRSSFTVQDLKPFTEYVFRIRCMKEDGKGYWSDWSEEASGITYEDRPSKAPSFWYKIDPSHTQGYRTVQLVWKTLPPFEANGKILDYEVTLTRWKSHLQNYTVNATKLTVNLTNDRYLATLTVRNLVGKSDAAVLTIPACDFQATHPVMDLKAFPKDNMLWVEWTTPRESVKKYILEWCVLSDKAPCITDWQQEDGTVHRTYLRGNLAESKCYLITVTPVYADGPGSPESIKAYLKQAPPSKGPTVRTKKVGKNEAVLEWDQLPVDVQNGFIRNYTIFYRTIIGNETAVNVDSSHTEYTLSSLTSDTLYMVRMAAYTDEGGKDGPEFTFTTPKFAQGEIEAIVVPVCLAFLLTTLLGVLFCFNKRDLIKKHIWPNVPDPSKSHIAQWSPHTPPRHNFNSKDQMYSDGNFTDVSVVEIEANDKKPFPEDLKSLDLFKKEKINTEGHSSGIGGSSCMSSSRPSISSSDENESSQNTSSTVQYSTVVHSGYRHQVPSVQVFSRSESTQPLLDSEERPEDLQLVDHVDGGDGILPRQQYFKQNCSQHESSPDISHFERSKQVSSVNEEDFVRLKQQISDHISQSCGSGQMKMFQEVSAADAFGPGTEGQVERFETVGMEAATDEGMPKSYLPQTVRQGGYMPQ
STAT3, sequence (P40763 2-770): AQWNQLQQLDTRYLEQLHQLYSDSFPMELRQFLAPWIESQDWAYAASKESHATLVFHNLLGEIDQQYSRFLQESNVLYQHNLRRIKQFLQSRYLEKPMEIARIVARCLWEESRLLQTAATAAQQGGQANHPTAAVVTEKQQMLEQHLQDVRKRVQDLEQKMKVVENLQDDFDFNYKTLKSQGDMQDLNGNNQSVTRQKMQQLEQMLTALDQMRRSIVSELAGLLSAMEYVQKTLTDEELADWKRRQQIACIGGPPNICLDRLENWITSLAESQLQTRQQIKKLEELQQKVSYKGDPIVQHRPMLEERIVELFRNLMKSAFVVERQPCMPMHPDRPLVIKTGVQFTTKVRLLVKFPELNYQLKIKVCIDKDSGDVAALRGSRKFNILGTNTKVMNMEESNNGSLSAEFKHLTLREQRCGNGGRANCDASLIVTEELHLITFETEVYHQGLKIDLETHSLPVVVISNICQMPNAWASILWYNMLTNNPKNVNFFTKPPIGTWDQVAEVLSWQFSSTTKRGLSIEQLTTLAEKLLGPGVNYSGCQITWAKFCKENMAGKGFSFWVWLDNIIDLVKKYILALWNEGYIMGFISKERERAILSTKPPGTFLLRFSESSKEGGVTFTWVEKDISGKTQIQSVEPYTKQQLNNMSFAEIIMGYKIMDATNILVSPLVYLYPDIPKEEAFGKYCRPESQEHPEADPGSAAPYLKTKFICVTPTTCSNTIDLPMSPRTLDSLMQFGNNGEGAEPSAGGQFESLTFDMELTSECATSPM

| Molecule | inhibition of the STAT3–phosphopeptide complex (FP) (STAT3-SH2 domain) | suppression of STAT3-DNA binding activity (in words) [1] | Papp at 90 min, 10 μM [2] [×10⁻⁶ cm/s] | effect on STAT5 in FP assay (STAT5) | recovery at 90 min, 10 μM (in vitro) [%] | STAT3 activity after 24 h [1] | also measured |
| --- | --- | --- | --- | --- | --- | --- | --- |
| CC(C)C[C@H](NC(=O)[C@H](Cc1ccc(O)cc1)NC(=O)c1ccc(C#N)cc1)C(=O)Nc1cc(C(=O)NCc2ccccc2)cc(-c2ccc(C(N)=O)cc2)c1 [Inhibitor 14ba-OH, N^3-benzyl-5-((S)-2-((S)-2-(4-cyanobenzamido)-3-(4-hydroxyphenyl)propanamido)-4-methylpentanamido)-[1,1′-biphenyl]-3,4′-dicarboxamide] | neither peptidomimetic inhibited | negligible disruption | < 2 | – | – | – | – |
| CC(C)C[C@H](NC(=O)[C@H](Cc1ccc(OP(=O)(O)O)cc1)NC(=O)c1ccc(C#N)cc1)C(=O)Nc1ccc(C(=O)NCc2ccccc2)c(-c2ccc(C(N)=O)cc2)c1 [Inhibitor 14aa, 4-((S)-3-((S)-1-(6-(benzylcarbamoyl)-4′-carbamoylbiphenyl-3-ylamino)-4-methyl-1-oxopentan-2-ylamino)-2-(4-cyanobenzamido)-3-oxopropyl)phenyl dihydrogen phosphate] | – | – | – | no effect | 1 to 2 | partially recovered | suppression of STAT3-DNA binding activity ([1]; after 6 h): 80% and > 80% |
| STAT3 (from UniProt P40763) | – | – | – | – | – | – | Kd (gp130 (Homo sapiens)): 24 nM |
| CC(C)C[C@H](NC(=O)[C@H](Cc1ccc(OP(=O)(O)O)cc1)NC(=O)c1ccc(C#N)cc1)C(=O)O [ISS610] | – | – | – | – | – | – | dosage required for cellular activities (tumor cells): mM dosages |
| CC(C)C[C@H](NC(=O)[C@H](Cc1ccc(O)cc1)NC(=O)c1ccc(C#N)cc1)C(=O)Nc1ccc(C(=O)NCc2ccccc2)c(-c2ccc(C(N)=O)cc2)c1 [Inhibitor 14aa-OH] | neither peptidomimetic inhibited | almost the same potency as 14aa | < 2 | – | – | – | – |
| CC(C)C[C@H](NC(=O)[C@H](Cc1ccc(OP(=O)(O)O)cc1)NC(=O)c1ccc(C#N)cc1)C(=O)Nc1cc(C(=O)NCc2ccccc2)cc(-c2ccc(C(N)=O)cc2)c1 [Inhibitor 14ba, 4-((S)-3-(((S)-1-((5-(benzylcarbamoyl)-4′-carbamoyl-[1,1′-biphenyl]-3-yl)amino)-4-methyl-1-oxopentan-2-yl)amino)-2-(4-cyanobenzamido)-3-oxopropyl)phenyl dihydrogen phosphate] | – | – | – | no effect | 1 to 2 | partially recovered | Papp A→B at 90 min, 10 μM (in vitro; Caco-2, pH 7.4): < 0.5 ×10⁻⁶ cm/s; anti-cancer activity (cell viability, in words) [3]: only limited anti-cancer activity |
